From US8445521B2, “Synergistic antimicrobial composition” (Dow GLobal Technologies LLC, priority 2009, dated 2013)

Experiments:
[1] = system: oil field isolated anaerobic consortium, mainly SRB; assay: Biocidal efficacy (MBC, complete bacterial kill) against anaerobic bacteria in contaminated salt solution; format: cell-based, sulfate reducing bacteria (SRB); details: 40° C., 24 hours
Protocol: Inside an anaerobic chamber (BACTRON anaerobic chamber), a deaerated sterile salt solution (3.1183 g of NaCl, 1.3082 mg of NaHCO3, 47.70 mg of KCl, 72.00 mg of CaCl2, 54.49 mg of MgSO4, 172.28 mg of Na2SO4, 43.92 mg of Na2CO3 in 1 L water) was contaminated with an oil field isolated anaerobic consortium, mainly SRB, at final bacterial concentrations of 10^6 to 10^7 CFU/mL. The aliquots of this contaminated water were then treated with NaOPP and DMOZ, or the NaOPP/DMOZ combination, NaOPP and Tris Nitro, or the NaOPP/Tris Nitro combination, NaOPP and HHT, or the NaOPP/HHT combination at different active concentration levels. […] Tables 1-3 summarize the efficacy of each biocide and their blends, and the Synergy Index of each combination.

[2] = system: Pseudomonas aeruginosa, ATCC 10145 and Staphylococcus aureus, ATCC 6538; assay: Biocidal efficacy (MBC, complete bacteria kill) against aerobic bacteria in contaminated NaCl solution; format: cell-based; details: 37° C., 24 hours
Protocol: A sterile NaCl solution (0.85%) was contaminated with Pseudomonas aeruginosa, ATCC 10145 and Staphylococcus aureus, ATCC 6538 at final bacterial concentration of ca. 10^6 CFU/mL. The aliquots of this contaminated water were then treated with NaOPP and Tris Nitro, or the NaOPP/Tris Nitro combination, NaOPP and DMOZ or the NaOPP/DMOZ combination at different active concentration levels. After the mixtures were incubated at 37° C. for 24 hours, the biocidal efficacy was determined by minimum tested biocide concentration for complete bacteria kill in the aliquots. Tables 4 and 5 summarize the efficacy of each biocide and their blends, and the Synergy Index of each combination.

[3] = DMOZ alone or DMOZ part of NaOPP/DMOZ blend
[4] = NaOPP alone or NaOPP part of NaOPP/DMOZ blend
[5] = NaOPP alone or NaOPP part of NaOPP/Tris Nitro blend
[6] = Tris Nitro alone or Tris Nitro part of NaOPP/Tris Nitro blend

SMILES: CC1(C)COCN1 [DMOZ, 4,4-dimethyloxazolidine]
- MBC (active ppm) DMOZ [1, 3]: 74.1 active ppm
- Average MBC (active ppm) DMOZ [2, 3]: 86.1 active ppm

SMILES: OCCN1CN(CCO)CN(CCO)C1 [HHT, hexahydro-1,3,5-tris(2-hydroxyethyl)-s-triazine]
- MBC (active ppm) HHT ([1]; HHT alone or HHT part of NaOPP/HHT blend): 111.1 active ppm

SMILES: [Na+].[O-]c1ccccc1-c1ccccc1 [NaOPP, sodium o-phenylphenylate]
- MBC (active ppm) NaOPP [1, 4]: 333.3 active ppm
- MBC (active ppm) NaOPP ([1]; NaOPP alone or NaOPP part of NaOPP/HHT blend): 500 active ppm
- MBC (active ppm) NaOPP [1, 5]: 500 active ppm
- Average MBC (active ppm) NaOPP [2, 4]: 292.9 active ppm
- MBC (active ppm) NaOPP [2, 5]: 266.3 active ppm

SMILES: O=[N+]([O-])C(CO)(CO)CO [Tris Nitro, tris(hydroxymethyl)nitromethane]
- MBC (active ppm) Tris Nitro [1, 6]: 44.4 active ppm
- MBC (active ppm) Tris Nitro [2, 6]: 25.1 active ppm
